The values below come from US6548496B2, “Substituted 3-cyano-[1.7], [1.5], and [1.8] naphthyridine inhibitors of tyrosine kinases” (American Cyanamid Company, priority 1999, dated 2003).

As usually defined, the IC50 is the midpoint of a concentration-inhibition curve. High values mean a need for much substance, low ones inhibition by little substance. The melting point is the temperature of the solid-liquid transition.

Values after ≈ are worked out from the molar mass of the structure shown.

The target of series [1] is Epithelial Cell Kinase (ECK) (Homo sapiens, UniProt P29317). Briefly: Inhibition of Epithelial Cell Kinase (ECK). The format is biochemical. The note with it: biotinylated peptide substrate, HRP anti-phosphotyrosine readout, pH 7.2. How it is done: In this standard pharmacological test procedure, a biotinylated peptide substrate is first immobilized on neutravidin-coated microtiter plates. The test drug, the Epithelial Cell Kinase (ECK), Mg^++, sodium vanadate (a protein tyrosine phosphatase inhibitor), and an appropriate buffer to maintain pH (7.2) are then added to the immobilized substrate-containing microtiter wells. ATP is then added to initiate phosphorylation. After incubation, the assay plates are washed with a suitable buffer leaving behind phosphorylated peptide which is exposed to horse radish peroxidase (HRP)-conjugated anti-phosphotyrosine monoclonal antibody. The antibody-treated plates are washed again and the HRP activity in individual wells is quantified as a reflection of degree of substrate phosphorylation. This nonradioactive format was used to identify inhibitors of ECK tyrosine kinase activity where the IC50 is the concentration of drug that inhibits substrate phosphorylation by 50%. Multiple entries for a given compound indication it was tested multiple times.
Sequence of Epithelial Cell Kinase (ECK) (P29317 24-976, species assumed): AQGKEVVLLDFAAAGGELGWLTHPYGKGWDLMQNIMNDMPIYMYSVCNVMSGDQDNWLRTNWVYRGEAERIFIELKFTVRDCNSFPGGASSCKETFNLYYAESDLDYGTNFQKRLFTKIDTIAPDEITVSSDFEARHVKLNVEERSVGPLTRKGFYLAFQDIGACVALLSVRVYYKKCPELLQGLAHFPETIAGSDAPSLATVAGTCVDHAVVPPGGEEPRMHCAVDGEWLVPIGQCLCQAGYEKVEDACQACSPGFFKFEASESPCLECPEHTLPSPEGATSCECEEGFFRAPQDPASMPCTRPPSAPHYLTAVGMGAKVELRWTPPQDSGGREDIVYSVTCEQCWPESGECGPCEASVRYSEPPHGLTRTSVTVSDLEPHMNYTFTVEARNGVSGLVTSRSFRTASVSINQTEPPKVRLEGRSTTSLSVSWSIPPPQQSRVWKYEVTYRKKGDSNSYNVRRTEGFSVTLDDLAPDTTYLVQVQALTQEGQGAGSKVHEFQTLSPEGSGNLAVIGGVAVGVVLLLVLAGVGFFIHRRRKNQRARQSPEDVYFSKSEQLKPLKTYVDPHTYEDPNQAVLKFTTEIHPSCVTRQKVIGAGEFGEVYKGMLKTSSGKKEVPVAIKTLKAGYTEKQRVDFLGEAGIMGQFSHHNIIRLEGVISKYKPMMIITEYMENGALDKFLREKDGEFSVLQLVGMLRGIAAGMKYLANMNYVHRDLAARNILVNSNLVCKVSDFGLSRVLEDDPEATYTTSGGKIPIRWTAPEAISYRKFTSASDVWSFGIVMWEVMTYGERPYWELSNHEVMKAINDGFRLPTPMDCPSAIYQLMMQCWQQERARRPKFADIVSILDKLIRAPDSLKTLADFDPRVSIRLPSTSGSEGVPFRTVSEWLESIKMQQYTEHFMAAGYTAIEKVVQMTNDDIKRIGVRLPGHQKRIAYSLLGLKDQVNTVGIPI

Series [2] concerns SW620. Nature of the series: Inhibition of cancer cell growth by cell number, SW620. It is filed as cell-based, Human. To be noted: Homo sapiens, SW-620; 48 hours exposure, Sulforhodamine B. How it is done: (§1) Human tumor cell lines were plated in 96-well plates (250 μl/well, 1-6×10^4 cells/ml) in RPMI 1640 medium, containing 5% FBS (Fetal Bovine Serum). […] After 48 hours exposure to test compounds, cells were fixed with trichloroacetic acid, and stained with Sulforhodamine B. After washing with trichloroacetic acid, bound dye was solubilized in 10 mM Tris base and optical density was determined using a plate reader. Under conditions of the assay the optical density is proportional to the number of cells in the well. IC50s (concentrations causing 50% inhibition of cell growth) were determined from the growth inhibition plots. The test procedure is described in details by Philip Skehan et. at J. Natl. Canc. Inst., 82, 1107-1112 (1990). […] Information about some of the cell lines used in these test procedures is available from the American […]: Cell Lines and Hybridomas, 1994 Reference Guide, 8th Edition. The Her2Neu cell line is a 3T3 line that has bbeen transfected with Her2 receptor kinase.

The subject of series [3] is MDA435. Nature of the series: Inhibition of cancer cell growth by cell number, MDA435. It is filed as cell-based, Human. To be noted: Homo sapiens, MDA435; 48 hours exposure, Sulforhodamine B. How it is done: as §1
In series [4] the test system is A431. Nature of the series: Inhibition of cancer cell growth by cell number, A431. The note with it: Homo sapiens, A-431; 48 hours exposure, Sulforhodamine B. It is filed as cell-based, Human. How it is done:
as §1

The subject of series [5] is SKBR3. Nature of the series: Inhibition of cancer cell growth by cell number, SKBR3. To be noted: Homo sapiens, SK-BR-3; 48 hours exposure, Sulforhodamine B. The format is cell-based, Human. How it is done: as §1
In series [6] the test system is A2780S. Briefly: Inhibition of cancer cell growth by cell number, A2780S. The format is cell-based, Human. To be noted: Homo sapiens, A2780S; 48 hours exposure, Sulforhodamine B. How it is done:
as §1

Series [7] relates to A2780DDP. Nature of the series: Inhibition of cancer cell growth by cell number, A2780DDP. To be noted: Homo sapiens; 48 hours exposure, Sulforhodamine B. The format is cell-based, Human. How it is done: as §1

For `CC#CC(=O)Nc1cnc2ncc(C#N)c(Nc3cccc(Br)c3)c2c1` [Example 24, But-2-ynoic Acid [5-(3-bromo-phenylamino)-6-cyano-[1,8]-naphthyridin-3-yl]-amide], in series [1], the IC50 was < 40 nM.

Compound `N#Cc1cnc2cnc(F)cc2c1Nc1cccc(Br)c1` [Example 57, 4-(3-Bromo-phenylamino)-6-fluoro-[1,7]naphthyridine-3-carbonitrile] showed a melting point of 185 to 195 °C.

For the compound `COc1ccc(CNc2cc3c(Nc4cccc(Br)c4)c(C#N)cnc3cn2)cc1` [Example 58, 4-(3-Bromo-phenylamino)-6-(4-methoxy-benzylamino)-[1,7]naphthyridine-3-carbonitrile], the melting point was 82 to 86 °C (dec.).

With `N#Cc1cnc2cnc(N)cc2c1Nc1cccc(Br)c1` [Example 59, 6-Amino-4-(3-bromo-phenylamino)-[1,7]naphthyridine-3-carbonitrile], the melting point is 185 to 190 °C (dec.).

In the case of `CC#CC(=O)Nc1cc2c(Nc3cccc(Br)c3)c(C#N)cnc2cn1` [Example 61, But-2-ynoic Acid, [4-(3-bromo-phenylamino)-3-cyano-[1,7]naphthyridin-6-yl]-amide], the melting point is 255 °C (dec.).

Turning to `CN(C)CC=CC(=O)Nc1cc2c(Nc3cccc(Br)c3)c(C#N)cnc2cn1` [Example 62, 4-Dimethylamino-but-2-enoic Acid, [4-(3-bromo-phenylamino)-3-cyano-[1,7]naphthyridin-6-yl]-amide], the melting point is 180 to 185 °C (dec.). Also, the IC50 in series [2] came to 0.356 µg/mL (≈ 0.789 µM).

Take `N#Cc1cnc2cnc(NCCN3CCOCC3)cc2c1Nc1cccc(Br)c1` [Example 63, 4-(3-Bromo-phenylamino)-6-(2-morpholino-4-yl-ethylamino)-[1,7]naphthyridine-3-carbonitrile]: the melting point was 80 to 96 °C (dec.).

Turning to `CNc1cc2c(Nc3cccc(Br)c3)c(C#N)cnc2cn1` [Example 64, 4-(3-Bromo-phenylamino)-6-methylamino-[1,7]naphthyridine-3-carbonitrile], the melting point is 250 °C (dec.).

As to `Cc1ccc(Nc2c(C#N)cnc3cnc(F)cc23)cc1O` [Example 66, 6-Fluoro-4-(3-hydroxy-4-methyl-phenylamino)-[1,7]naphthyridine-3-carbonitrile], the melting point is 236 to 239 °C (dec.). The IC50 in series [1] was > 3300 nM.

The compound `N#Cc1cnc2cnc(F)cc2c1Nc1ccc(Oc2ccccc2)cc1` [Example 67, 6-Fluoro-4-(4-phenoxy-phenylamino)-[1,7]naphthyridine-3-carbonitrile] yielded a melting point of 211 to 213 °C.

With `N#Cc1cnc2cnc(F)cc2c1Nc1ccc(Cl)cc1Cl` [Example 68, 4-(2,4-Dichloro-phenylamino)-6-fluoro-[1,7]naphthyridine-3-carbonitrile], the melting point is 206 to 208 °C.

`N#Cc1cnc2cnc(F)cc2c1Nc1ccc(F)c(Cl)c1` [Example 69, 4-(3-Chloro-4-fluoro-phenylamino)-6-fluoro-[1,7]naphthyridine-3-carbonitrile] gave a melting point of 108 to 111 °C.

With `N#Cc1cnc2cnc(F)cc2c1Oc1ccc(Cl)cc1F` [Example 71, 4-(4-Chloro-2-fluoro-phenoxy)-6-fluoro-[1,7]naphthyridine-3-carbonitrile], the melting point was in the range of 186 to 188 °C.

Consider `CN(C)CCOc1cc2c(Nc3ccc(Oc4ccccc4)cc3)c(C#N)cnc2cn1` [Example 73, 6-(2-Dimethylamino-ethoxy)4(4-phenoxy-phenylamino)-[1,7]naphthyridine-3-carbonitrile], for which the melting point was in the range of 159 to 161 °C.

The compound `CN(C)CCOc1cc2c(Nc3ccc(F)c(Cl)c3)c(C#N)cnc2cn1` [Example 74, 4-(3-Chloro-4-fluoro-phenylamino)-6-(2-dimethylamino-ethoxy)-[1,7]naphthyridine-3-carbonitrile] yielded a melting point of 131 to 132 °C.

Consider `CN(C)CCOc1cc2c(Nc3ccc(Cl)cc3F)c(C#N)cnc2cn1` [Example 76, 4-(4-Chloro-2-fluoro-phenylamino)-6-(2-dimethylamino-ethoxy)-[1,7]naphthyridine-3-carbonitrile], for which the melting point lay in the range of 150 to 152 °C.

On to `CN(C)CCOc1cc2c(Nc3cccc(Br)c3)c(C#N)cnc2cn1` [Example 77, 4-(3-Bromo-phenylamino)-6-(2-dimethylamino-ethoxy)-[1,7]naphthyridine-3-carbonitrile], for which the melting point lay within 138 to 139 °C. Besides, the IC50 in series [1] is > 2400 nM.

`N#Cc1cnc2cnc(Cl)cc2c1Nc1cccc(Br)c1` [Example 83, 4-(3-Bromo-phenylamino)-6-chloro-[1,7]naphthyridine-3-carbonitrile] yielded a melting point of 220 to 223 °C.

Turning to `C[Si](C)(C)C#Cc1cc2c(Nc3cccc(Br)c3)c(C#N)cnc2cn1` [Example 85, 4-(3-Bromo-phenylamino)-6-trimethylsilanylethynyl-[1,7]naphthyridine-3-carbonitrile], the melting point turned out to be 125 °C. This compound also had an IC50 in series [3] of 4.2 µg/mL (≈ 9.97 µM). In series [4], this compound registered an IC50 of 3.06 µg/mL (≈ 7.25 µM). Moreover, the IC50 in series [5] was determined as 3.59 µg/mL (≈ 8.52 µM). Further, the IC50 in series [6] is 2.34 µg/mL (≈ 5.56 µM). In addition, the IC50 in series [7] stood at 2.97 µg/mL (≈ 7.05 µM). Besides, the IC50 in series [2] is 4.72 µg/mL (≈ 11.2 µM).

Take `C#Cc1cc2c(Nc3cccc(Br)c3)c(C#N)cnc2cn1` [Example 86, 4-(3-Bromo-phenylamino)-6-ethynyl-[1,7]naphthyridine-3-carbonitrile]: the melting point is 224 °C (dec.).
